Each structure is given as a SMILES string.

For one assay, the target named is CDK1/Cyclin B1 (Homo sapiens, UniProt P06493). Nature of the assay: CDK1/Cyclin B1 TR-FRET biochemical assay, 0.015 mM ATP. Conditions: 0.15 μM Rb (Ser780)-biotin substrate, 120 min reaction, Table 1. The protocol: (§1) Compounds disclosed herein were tested for inhibition of CDK2/Cyclin E1 or CDK1/Cyclin B1 kinase in an assay based on the time-resolved fluorescence-resonance energy transfer (TR-FRET) methodology. The assay was carried out in 384-well low volume black plates in a reaction mixture containing CDK2/Cyclin E1 or CDK1/Cyclin B1, 0.060 mM ATP for CDK2/Cyclin E1 or 0.015 mM ATP for CDK1/Cyclin B1, 0.15 μM Rb (Ser780)-biotin substrate and 0-10 μM compound in buffer containing 50 mM HEPES pH7.0, 0.02% NaN3, 0.01% BSA, 0.1 mM Orthovanadate, 50 mM MgCl2, 1 mM DTT and 0.005% Tween-20. The kinase was incubated with compound for 60 minutes at room temperature and the reaction was initiated by the addition of ATP and Rb (Ser780)-biotin substrate. After reaction at room temperature for 120 minutes, an equal volume of stop/detection solution was added according to the manufacture's instruction (Cisbio Bioassays). The stop/detection solution contained Streptavidin-XL665 and Anti-pRb (Ser780) mAb-Eu Cryptate in Detection buffer (Cisbio Bioassays). Plates were incubated at room temperature for 60 minutes, and the TR-FRET signals (ex337 nm, em665 nm/620 nm) were recorded on a PHERAstar FSX plate reader (BMG Labtech). The inhibition percentage of CDK2/Cyclin E1 or CDK1/Cyclin B1 kinase activity in presence of increasing concentrations of compounds was calculated based on the ratio of fluorescence at 665 nm to that at 620 nm. The IC50 for each compound was derived from fitting the data to the four-parameter logistic equation by Dotmatics.
Sequence of CDK1/Cyclin B1 (P06493 whole entry): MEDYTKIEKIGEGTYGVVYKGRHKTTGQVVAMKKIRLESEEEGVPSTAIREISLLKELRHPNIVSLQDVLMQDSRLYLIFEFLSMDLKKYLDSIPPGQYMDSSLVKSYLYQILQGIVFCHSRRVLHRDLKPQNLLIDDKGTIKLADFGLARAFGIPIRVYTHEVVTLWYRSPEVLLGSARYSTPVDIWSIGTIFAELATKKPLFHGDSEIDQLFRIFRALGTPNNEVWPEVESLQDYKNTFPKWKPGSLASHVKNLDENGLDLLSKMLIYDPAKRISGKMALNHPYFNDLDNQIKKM
Sequence of CDK1/Cyclin B1 (P14635 whole entry partner): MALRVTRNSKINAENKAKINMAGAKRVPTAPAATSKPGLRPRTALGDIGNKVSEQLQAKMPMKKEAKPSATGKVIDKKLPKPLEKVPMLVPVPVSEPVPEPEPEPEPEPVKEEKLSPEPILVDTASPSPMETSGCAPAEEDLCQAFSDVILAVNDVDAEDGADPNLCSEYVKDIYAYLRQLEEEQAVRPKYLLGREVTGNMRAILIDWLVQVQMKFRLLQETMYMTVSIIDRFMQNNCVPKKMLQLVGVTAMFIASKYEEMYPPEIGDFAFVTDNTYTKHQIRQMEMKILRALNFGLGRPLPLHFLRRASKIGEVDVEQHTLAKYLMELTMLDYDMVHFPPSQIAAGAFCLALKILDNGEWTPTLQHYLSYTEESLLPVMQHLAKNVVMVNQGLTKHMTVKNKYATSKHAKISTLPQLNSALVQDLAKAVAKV

The target in a further assay is CDK2/Cyclin E1 (Homo sapiens, UniProt P24941). Kind of assay: CDK2/Cyclin E1 TR-FRET biochemical assay, 0.060 mM ATP. Particulars: 0.15 μM Rb (Ser780)-biotin substrate, 120 min reaction, Table 1. The protocol: as §1

`CC(C)c1ccnn([C@H]2CC[C@@H](c3cc(Nc4ccc5c(c4F)CNS5(=O)=O)n[nH]3)C2)c1=O` (relative stereo) [Example 26, cis-2-(3-(3-((4-fluoro-1,1-dioxido-2,3-dihydrobenzo[d]isothiazol-5-yl)amino)-1H-pyrazol-5-yl)cyclopentyl)-4-isopropylpyridazin-3 (2H)-one]: the concentration for half-maximal inhibition (IC50) against CDK1/Cyclin B1 was determined as 1.69 µM; at CDK2/Cyclin E1, 0.14 µM.
For `CCOC(=O)c1cn[nH]c1O[C@H]1CC[C@@H](c2cc(Nc3ccc4c(c3F)CNS4(=O)=O)n[nH]2)C1` (relative stereo) [Example 68, cis-ethyl 5-((3-(3-((4-fluoro-1,1-dioxido-2,3-dihydrobenzo[d]isothiazol-5-yl)amino)-1H-pyrazol-5-yl)cyclopentyl)oxy)-1H-pyrazole-4-carboxylate] the same measures were 0.198 µM and 0.012 µM.
On the same counts, the results for `O=c1cccnn1[C@H]1CC[C@@H](c2cc(Nc3ccc4c(c3F)CNS4(=O)=O)n[nH]2)C1` (relative stereo) [Example 21, cis-2-(3-(3-((4-fluoro-1,1-dioxido-2,3-dihydrobenzo[d]isothiazol-5-yl)amino)-1H-pyrazol-5-yl)cyclopentyl)pyridazin-3 (2H)-one] are 0.142 µM and 0.014 µM.
For `CCc1cnc(C2CCC(c3cc(Nc4ccc5c(c4F)CNS5(=O)=O)n[nH]3)C2)o1` (stereo not drawn) [Example 92, 5-((5-(3-(5-ethyloxazol-2-yl)cyclopentyl)-1H-pyrazol-3-yl)amino)-4-fluoro-2,3-dihydrobenzo[d]isothiazole 1,1-dioxide] the same measures were 0.509 µM and 0.021 µM.
Consider `CC(C)(C)c1n[nH]cc1OC1CCC(c2cc(Nc3ccc4c(c3F)CNS4(=O)=O)n[nH]2)C1` (single isomer, unassigned) [Example 74a, cis-5-((5-(3-((3-(tert-butyl)-1H-pyrazol-4-yl)oxy)cyclopentyl)-1H-pyrazol-3-yl)amino)-4-fluoro-2,3-dihydrobenzo[d]isothiazole 1,1-dioxide], for which the figures for the IC50 on CDK1/Cyclin B1 and against CDK2/Cyclin E1 were 0.301 µM and 0.0049 µM, respectively.
On the same counts, the results for `O=c1c(-c2ccccc2)ccnn1[C@H]1CC[C@@H](c2cc(Nc3ccc4c(c3F)CNS4(=O)=O)n[nH]2)C1` (relative stereo) [Example 30, cis-2-(3-(3-((4-fluoro-1,1-dioxido-2,3-dihydrobenzo[d]isothiazol-5-yl)amino)-1H-pyrazol-5-yl)cyclopentyl)-4-phenylpyridazin-3 (2H)-one] are over 10 µM and 2.08 µM.
On the same counts, the results for `CC(C)c1csnc1O[C@@H]1CC[C@H](c2cc(Nc3ccc4c(c3F)CNS4(=O)=O)n[nH]2)C1` (relative stereo) [Example 55, cis-4-fluoro-5-((5-(3-((4-isopropylisothiazol-3-yl)oxy)cyclopentyl)-1H-pyrazol-3-yl)amino)-2,3-dihydrobenzo[d]isothiazole 1,1-dioxide] are 0.486 µM and 0.014 µM.
For `CC(C)(C)c1ncccc1O[C@@H]1CC[C@H](c2cc(Nc3ccc4c(c3F)CNS4(=O)=O)n[nH]2)C1` (relative stereo) [Example 45, cis-5-((5-(3-((2-(tert-butyl)pyridin-3-yl)oxy)cyclopentyl)-1H-pyrazol-3-yl)amino)-4-fluoro-2,3-dihydrobenzo[d]isothiazole 1,1-dioxide] the same measures were 7.12 µM and 0.764 µM.
For `CC(C)c1ccnnc1O[C@@H]1CC[C@H](c2cc(Nc3ccc4c(c3F)CNS4(=O)=O)n[nH]2)C1` (relative stereo) [Example 27, cis-4-fluoro-5-((5-(3-((4-isopropylpyridazin-3-yl)oxy)cyclopentyl)-1H-pyrazol-3-yl)amino)-2,3-dihydrobenzo[d]isothiazole 1,1-dioxide], the IC50 amounted to 0.0037 µM at CDK1/Cyclin B1 and 0.0007 µM at CDK2/Cyclin E1.
For `Cc1n[nH]cc1O[C@@H]1CC[C@H](c2cc(Nc3ccc4c(c3F)CNS4(=O)=O)n[nH]2)C1` (relative stereo) [Example 79, cis-4-fluoro-5-((5-(3-((3-methyl-1H-pyrazol-4-yl)oxy)cyclopentyl)-1H-pyrazol-3-yl)amino)-2,3-dihydrobenzo[d]isothiazole 1,1-dioxide], the half-maximal inhibitory concentration (IC50) against CDK1/Cyclin B1 was 0.486 µM; against CDK2/Cyclin E1 it was 0.01 µM.
On the same counts, the results for `CC(C)n1cc(O[C@@H]2CC[C@H](c3cc(Nc4ccc5c(c4F)CNS5(=O)=O)n[nH]3)C2)cn1` (relative stereo) [Example 78, cis-4-fluoro-5-((5-(3-((1-isopropyl-1H-pyrazol-4-yl)oxy)cyclopentyl)-1H-pyrazol-3-yl)amino)-2,3-dihydrobenzo[d]isothiazole 1,1-dioxide] are over 10 µM and 0.306 µM.
For `CC(C)c1n[nH]cc1O[C@@H]1CC[C@H](c2cc(Nc3ccc4c(c3F)CNS4(=O)=O)n[nH]2)C1` (relative stereo) [Example 73, cis-4-fluoro-5-((5-(3-((3-isopropyl-1H-pyrazol-4-yl)oxy)cyclopentyl)-1H-pyrazol-3-yl)amino)-2,3-dihydrobenzo[d]isothiazole 1,1-dioxide] the same measures were 0.445 µM and 0.012 µM.
For `Cc1ccncc1O[C@@H]1CC[C@H](c2cc(Nc3ccc4c(c3F)CNS4(=O)=O)n[nH]2)C1` (relative stereo) [Example 42, cis-4-fluoro-5-((5-(3-((4-methylpyridin-3-yl)oxy)cyclopentyl)-1H-pyrazol-3-yl)amino)-2,3-dihydrobenzo[d]isothiazole 1,1-dioxide] the same measures were 0.531 µM and 0.171 µM.
As to `O=S1(=O)NCc2c1ccc(Nc1cc([C@H]3CC[C@@H](Oc4ccon4)C3)[nH]n1)c2F` (relative stereo) [Example 48, cis-4-fluoro-5-((5-(3-(isoxazol-3-yloxy)cyclopentyl)-1H-pyrazol-3-yl)amino)-2,3-dihydrobenzo[d]isothiazole 1,1-dioxide], the results for the 50% inhibitory concentration (IC50) against CDK1/Cyclin B1 and against CDK2/Cyclin E1 were 0.425 µM and 0.038 µM, respectively.
For `CC1(C)CC(=O)N([C@H]2CC[C@@H](c3cc(Nc4ccc5c(c4F)CNS5(=O)=O)n[nH]3)C2)C1=O` (relative stereo) [Example 87, cis-1-(3-(3-((4-fluoro-1,1-dioxido-2,3-dihydrobenzo[d]isothiazol-5-yl)amino)-1H-pyrazol-5-yl)cyclopentyl)-3,3-dimethylpyrrolidine-2,5-dione] the same measures were 3.25 µM and 0.229 µM.
On the same counts, the results for `C=C(C)c1csnc1O[C@@H]1CC[C@H](c2cc(Nc3ccc4c(c3F)CNS4(=O)=O)n[nH]2)C1` (relative stereo) [Example 52, cis-4-fluoro-5-((5-(3-((4-(prop-1-en-2-yl)isothiazol-3-yl)oxy)cyclopentyl)-1H-pyrazol-3-yl)amino)-2,3-dihydrobenzo[d]isothiazole 1,1-dioxide] are 0.121 µM and 0.0071 µM.
For `O=S1(=O)NCc2c1ccc(Nc1cc([C@H]3CC[C@@H](Oc4ccsn4)C3)[nH]n1)c2F` (relative stereo) [Example 50, cis-4-fluoro-5-((5-(3-(isothiazol-3-yloxy)cyclopentyl)-1H-pyrazol-3-yl)amino)-2,3-dihydrobenzo[d]isothiazole 1,1-dioxide], the values for the half-inhibitory concentration (IC50) against CDK1/Cyclin B1 and against CDK2/Cyclin E1 were 1.32 µM and 0.033 µM, respectively.
For `O=S1(=O)NCc2c1ccc(Nc1cc(C3CCC(c4ncc(CO)o4)C3)[nH]n1)c2F` (stereo not drawn) [Example 93, 4-fluoro-5-((5-(3-(5-(hydroxymethyl)oxazol-2-yl)cyclopentyl)-1H-pyrazol-3-yl)amino)-2,3-dihydrobenzo[d]isothiazole 1,1-dioxide] the same measures were 1.76 µM and 0.07 µM.
For `CC1(C)NC(=O)N(C2CCC(c3cc(Nc4ccc5c(c4F)CNS5(=O)=O)n[nH]3)C2)C1=O` (single isomer, unassigned) [Example 84b, cis-3-(3-(3-((4-fluoro-1,1-dioxido-2,3-dihydrobenzo[d]isothiazol-5-yl)amino)-1H-pyrazol-5-yl)cyclopentyl)-5,5-dimethylimidazolidine-2,4-dione], the half-inhibitory concentration (IC50) against CDK1/Cyclin B1 was 0.142 µM; against CDK2/Cyclin E1, 0.014 µM.
For `CC(C)N1CC(=O)N([C@H]2CC[C@@H](c3cc(Nc4ccc5c(c4F)CNS5(=O)=O)n[nH]3)C2)C1=O` (relative stereo) [Example 82, cis-3-(3-(3-((4-fluoro-1,1-dioxido-2,3-dihydrobenzo[d]isothiazol-5-yl)amino)-1H-pyrazol-5-yl)cyclopentyl)-1-isopropylimidazolidine-2,4-dione] the same measures were over 10 µM and 0.602 µM.
On the same counts, the results for `CC(C)(C)c1n[nH]cc1OC1CCC(c2cc(Nc3ccc4c(c3F)CNS4(=O)=O)n[nH]2)C1` (single isomer, unassigned) [Example 74b, cis-5-((5-(3-((3-(tert-butyl)-1H-pyrazol-4-yl)oxy)cyclopentyl)-1H-pyrazol-3-yl)amino)-4-fluoro-2,3-dihydrobenzo[d]isothiazole 1,1-dioxide] are 0.671 µM and 0.018 µM.

The record behind these values is patent publication US20260200897A1, “4-((5-(3-(4-(PYRIDIN-2-YL)CYCLOPENTYL)-1H-PYRAZOL-3-YL)AMINO)-BENZENESULFONAMIDE DERIVATIVES AND SIMILAR COMPOUNDS AS CDK INHIBITORS FOR THE TREATMENT OF CANCER” (BeOne Medicines I GmbH, priority 2023, published 2026).
